Data on eleven molecules can be found in US8093393B2, “Cationic ceramides, and analogs thereof, and their use for preventing or treating cancer” (MUSC Foundation for Research Development, priority 2004, dated 2012).

Data set [1] concerns MCF7 breast carcinoma cells. In words: Cell proliferation and viability, Trypan blue exclusion assay. It counts as cell-based. The following applies: for IC50: 48 h treatment, read-out: IC50, inhibitory effect on MCF7 cell growth. The method, then:
FIGS. 5A-5F show the dose dependent effects of CCPS analogs on survival of MCF7 breast carcinoma cells in comparison to the activity of D-e-C6-ceramide, which is commonly used as a model of ceramide action. Cell proliferation and cell viability were determined by Trypan blue exclusion assay. These assays were performed using duplicate samples in two or three independent experiments.
Cell Proliferation: Cells were seeded into plates at a density of approx. 50% corresponding to 1×10^6 cells, in 10 ml of 10% FCS and after an over night incubation the cells were treated with LCL compounds at concentration 0-20 μM in ethanol (ethanol level was kept below 0.1%) and the changes in cell numbers after 48 h were determined and expressed as a percentage of the untreated controls.
Briefly, media was removed, cells were washed twice with PBS, detached using 1% Trypsin and centrifuged at 800 rpm. Cell pellets were resuspended in PBS and Trypan blue (Sigma Chemicals, St. Louis, Mo., USA) was added (1:1 dilution). Under light microscope, the percentage of unstained and stained cells was assessed.
To examine the anticancer activity of CCPS analogs of the invention, their inhibitory effect on MCF7 breast carcinoma cells were analyzed and compared to the activity of D-e-C6-ceramide, which is commonly used as a model of action for ceramides. Cell proliferation and cell viability were determined by Trypan blue exclusion assay.

Data set [2] is described as follows: Solubility of ceramides and ceramidoids in water.
Data set [3] has as its system MCF7 cells. The following applies: 5 μM. As for the experimental part:
FIGS. 4A-4C show the cellular levels of CCPS analogs. MCF 7 cells were treated with 5 μM concentration of CCPS analogs over the time and cellular level of the nonmetabolized CCPSs was measured by MS methodology as shown under Experimental. Results are expressed as % of concentration applied.
A parallel set of cells was used to determine cell proliferation and to prepare lipid extracts for MS analysis.
Briefly, for the indicated points, media was removed, cells were washed twice with PBS, scraped into cold PBS (2×1.0 ml), transferred to glass vials and centrifuged for 5 min at 800 rpm. Cell pellets corresponding to ˜1×10^6 cells, were fortified with the internal standards IS (C17 base D-erythro-sphingosine: 17Sph, C17 sphingosine-1-phosphate: 17Sph-1P, N-palmitoyl-D-erythro-C13 sphingosine: 13CC16-Cer and N-heptadecanoyl-D-erythro-C17shingosine: 17CC17-Cer) and extracted (2×2 ml) into a one-phase solvent system with ethyl acetate/iso-propanol/water (60/30/10 v/v). One ml of this extract was used for Pi determination after lipid re-extraction by the Bligh and Dyer method. Remaining lipid extract was evaporated, reconstituted in 100 μl of methanol, and samples were injected on the Surveyor/TSQ 7000 LC/MS system and gradient eluted from the BDS Hypersil C8, 150×3.2 mm, 3 μm particle size column, with 1.0 mM methanolic ammonium formate/2 mM aqueous ammonium formate mobile phase system. Peaks corresponding to the target analytes and IS were collected and processed using the Xcalibur software system.
Cellular level of CCPS analogs was established by MS methodology.

Data set [4] has as its system UM-SCC-22A cells. In words: MTT cell survival assay and isobologram studies. It counts as cell-based, human. On the technique in general: Tetrazolium assays rely on reduction of a dye to a coloured formazan, in cell work by metabolically active cells.
Description: Human head and neck cancer cell lines UM-SCC-1 (retromolar trigone/floor of the mouth), UM-SCC-12 (primary tumor of larynx), and UM-SCC-22A cells were obtained from clinical samples. Cells were grown in DMEM containing 10% FCS and 1% penicillin/streptomycin at 37° C. in 5% CO2.
MTT cell survival assay and isobologram studies. The concentrations of agents that inhibited cell growth by 50% (IC50) were determined from cell survival plots obtained by MTT. Triplicate wells were used for each treatment. The final concentration of DMSO (a solvent for conventional ceramides, GMZ and DOX) in the growth medium was less than 0.1% (v/v) which has no effect on cell growth and survival. Pyridinium ceramides were dissolved in sterile water or growth medium. In short, after cells (5-10×10^3/well) were seeded in 96-well-plates for 24 hr, they were treated with increasing concentrations of ceramide analogs for an additional 48 or 96 hr. For combination treatments, ceramides and chemotherapeutic agents (gemcitabine (GMZ) or doxorubicin (DOX)) were added to the growth medium simultaneously during treatment. Isobologram plots were then constructed using IC50 values of the two agents alone or in combination obtained from MTT assays. A straight line joining points on x- and y-axes represent the IC50 concentrations of two agents, and the points representing the IC50 concentrations of the combination of the two agents are represented as scatter plots on the same graphs. In general, the points that fall within the left of the straight line indicate synergism. The experiments were performed as triplicates in at least 3 independent experiments.
Human head and neck cancer cell lines UM-SCC-1 (retromolar trigone/floor of the mouth), UM-SCC-14A (SCC of anterior floor of the mouth), and UM-SCC-22A (SCC of hypopharynx) cells were obtained. Cells were grown in DMEM containing 10% FCS and 1% penicillin/streptomycin at 37° C. in 5% CO2.
MTT cell survival assay and isobologram studies. The concentrations of agents that inhibited cell growth by 50% (IC50) were determined from cell survival plots obtained by MTT assays. […] In general, the points that fall within the left of the straight line indicate synergism. The experiments were performed as triplicates in at least 3 independent experiments. Error bars represent standard deviations.
For data set [5] the following is noted: mice; cited from earlier work.
The conditions of data set [6]: aqueous conditions at pH 4.5, 7.5 and 8.5 over 48 hrs.
In data set [7] the test system is UM-SCC-22A cells. The data set can be described thus: Cell cycle profiles by flow cytometry. It counts as cell-based, human. The settings on record: 1 μM, 48 hr. The method, then: FIGS. 13A to 13B. Roles of CCPS on cell cycle profiles, and telomerase activity of UM-SCC-22A cells. (FIG. 13A) The effects of D-e-C6—, D-e-C12- and L-th-C12-pyridinium ceramides (at 1 μM for 48 hr) on cell cycle profiles of UM-SCC-22A cells were determined and compared to that of untreated cells using flow cytometry as described in Materials and Methods. (FIG. 13B) The effects of 0, 100, 250 and 500 nM L-t-C6-Pyr-Cer (LCL-124) (lanes 1-4, respectively) at 96 hr treatment in UM-SCC-22A cells on telomerase activity was assessed using TRAP assay. Lanes 5 and 6 contain positive (+) and negative (−) controls. To examine whether C6-Pyr-Cer inhibits telomerase activity directly, cell extracts (as shown in lane 1) were incubated in the presence of various concentrations of L-th-C6-Pyr-ceramide (LCL-124; 10, 20 and 100 μM) and telomerase activity was determined using TRAP assay (lanes 7-9, respectively). The presence of non-telomeric 36 bp internal standard (IS) in the TRAP assay serves as a control for polymerase chain reaction, and used for quantitation/normalization of the activity of telomerase. The results shown are representative of at least two independent experiments.
Analysis of cell cycle profiles. The effects of pyridinium ceramides on the cell cycle profiles of A549 cells at 24 hr were analyzed in the presence of DNase-free RNase and propidium iodine (PI) by flow cytometry as described in Ogretmen et al., J. Biol. Chem. 2001; 276: 24901-24910, which is incorporated herein by reference in its entirety. Untreated cells were used as controls.
Analysis of cell cycle profiles. […] Untreated cells were used as controls.

Data set [8] has as its system MCF7 cells. The settings on record: 5 μM. This is another data set of the same source.
Description: Data are expressed as changes in the total ceramide level (pmol) or individual ceramide components (pmol) normalized to the phospholipid level, Pi (nmol) present in the Bligh & Dyer lipid extract and shown as changes to the control cells: Ceramide/Pi[pmol/nmol] (% Control).
Endogenous ceramide: ESI/MS/MS analysis of endogenous sphingoid bases, sphingoid base 1-phosphates and ceramide species was performed on a Thermo Finnigan TSQ 7000 triple quadrupole mass spectrometer, operating in a Multiple Reaction Monitoring (MRM) positive ionization mode using modified version (Bielawski, J. et al., SERMACS 2003, poster #68) of the protocol previously published (Sullard, M. C., Merrill, A. H., Sciences stke 2001/67/p 11).
Briefly, for the indicated points, media was removed, cells were washed twice with PBS, scraped into cold PBS (2×1.0 ml), transferred to glass vials and centrifuged for 5 min at 800 rpm. Cell pellets corresponding to ˜1×10^6 cells, were fortified with the internal standards IS (C17 base D-erythro-sphingosine: 17Sph, C17 sphingosine-1-phosphate: 17Sph-1P, N-palmitoyl-D-erythro-C13 sphingosine: 13CC16-Cer and N-heptadecanoyl-D-erythro-C17shingosine: 17CC17-Cer) and extracted (2×2 ml) into a one-phase solvent system with ethyl acetate/iso-propanol/water (60/30/10 v/v). One ml of this extract was used for Pi determination after lipid re-extraction by the Bligh and Dyer method. Remaining lipid extract was evaporated, reconstituted in 100 μl of methanol, and samples were injected on the Surveyor/TSQ 7000 LC/MS system and gradient eluted from the BDS Hypersil C8, 150×3.2 mm, 3 μm particle size column, with 1.0 mM methanolic ammonium formate/2 mM aqueous ammonium formate mobile phase system. […]
Quantitative analysis was based on the calibration curves generated by spiking an artificial matrix with the known amounts of the target analyte synthetic standards and an equal amount of the internal standards (IS). […]
Final data were adjusted and results were expressed as level of particular sphingolipids/Pi (pmol/nmol).
For data set [9], the system named is isolated rat liver mitochondria. In words: Mitochondrial permeabilization (ΔΨ, large-amplitude swelling). The following applies: for mitochondrial large-amplitude swelling (in words): 60 μM.
Description: Effects of ceramides on ΔΨ value (17A) and mitochondrial large-amplitude swelling (17B, 17C) Mitochondria were incubated at the condition described under Section 9.1 except that 2 μM of TPP+ was present from the beginning of the experiment. Alamethicin (ALA), a pore-forming peptide (7 μg/mg protein), was added as indicated to induce permeabilization and determine the full extend of potential changes in the parameters of interest. Where indicated ceramides at 40 μM were present from the beginning of the experiment. FIGS. 17A and 17B show time-courses of ceramides effect on ΔΨ and mitochondrial swelling. […] Degree of mitochondrial swelling was determined 30 min after ceramide treatment.
Mitochondria were incubated at the condition described under Section 9.1 except that 2 μM of TPP+ was present from the beginning of the experiment. Trace 2, no addition. […] Trace 4, FCCP at 1 μM was present from the beginning of the experiment. […] Alamethicin (ALA), a pore-forming peptide (7 μg/mg protein), was added as indicated to induce permeabilization and determine the full extent of potential changes in the parameters of interest.
Mitochondria were incubated at the condition described under “Experimental procedures”. […] Trace 2, DCCD at 100 μM was added from the beginning of the experiment. Alamethicin (ALA) was added as indicated to determine full degree of permeabilization. […] The curve was generated from experiments similar to that depicted in traces 1 and 2 with indicated concentration of DCCD present from the beginning of the experiment.
Effect of hydrophobic cations on the time-course of mitochondrial large-amplitude swelling. Alamethicin (ALA), a pore-forming peptide (7 μg/mg protein), was added as indicated to induce permeabilization and determine the full extent of mitochondrial swelling. Where indicated cations at 60 μM were added to the incubation medium. Trace 1, no additions; trace 2, C2 pyridinium ceramide; trace 3, TMRM; trace 4, cetyl pyridinium; trace 5, TPP^+. Trace 3 was corrected for the absorbance of TMRM.
Time-course (A) and dose-response (B) of the effect of C6 pyridinium dihydroceramide on mitochondrial large-amplitude swelling. Mitochondria were incubated at the condition described under “Experimental procedures”. Alamethicin (ALA), a pore-forming peptide (7 μg/mg protein), was added as indicated to induce permeabilization and determine the full extent of mitochondrial swelling. Where indicated ceramides at 30 μM were added to the incubation medium. […] Trace 1, no additions; trace 2, C6 pyridinium ceramide; trace 3, C6 pyridinium dihydroceramide. […] Degree of mitochondrial swelling was determined 15 min after ceramide treatment. Trace 1, C6 pyridinium dihydroceramide; trace 2, C6 pyridinium ceramide.
The test system is the same in data set [10]. The data set can be described thus: Accumulation / binding in isolated mitochondria. The settings on record: at 4 min. The method, then: FIG. 16. […] Bar 2 and 4 (+FCCP), ΔΨ was dissipated by addition of FCCP at 1 μM plus antimycin A at 0.5 μg/mg protein from the beginning of the experiment. Results are expressed as mean+SEM of n=3, *p=0.01 versus control.
FIG. 23. […] Trace 3 was corrected for the absorbance of TMRM.
Preparation of mitochondria from rat liver.
Mitochondrial incubation medium.
Analysis of ceramides by mass spectroscopy (MS).

[11] abbreviates: Homo sapiens, read-out: IC50 of chemotherapeutic agents.
[12] abbreviates: UM-SCC-22A, 48 hr, read-out: IC50, cell growth.
Setting [13] is: UM-SCC-22A, 96 hr, DMEM, read-out: IC50, cell growth.

Each structure is given as a SMILES string. Where “and” joins values, the source holds several entries; their conditions need not be identical. Identical values can stand only once. Like-named read-outs stand apart in the source and are kept apart here.

By IC50 is commonly meant the concentration that gives 50% inhibition. A word on the Solubility: it is how much of the substance goes into solution per volume.

For `CCCCCCCCCCCCCCC[C@@H](O)[C@H](CO)NC(=O)C[n+]1ccccc1.[Br-]` [LCL319, D-erythro-2-N-[2′-(1″-Pyridinium)-acetyl]-4,5-dihydrosphingosine Bromide], the “inhibition of MCF7 cell growth” value in data set [1] (10 μM, 48 h) came to 15%. Besides, the IC50 in data set [1] came out at 12500 nM. In data set [2] (22° C.), the “Solubility at 22° C.” value amounted to 0.9 mg/mL and the “Solubility at 22° C. ([mM])” value is “(1.8) mM”. In data set [2] (37° C.), the “Solubility at 37° C.” value is recorded as 45 mg/mL and the “Solubility at 37° C. ([mM])” value is “(90) mM”. Moreover, the “Cellular level, % of concentration applied” value in the data set on MCF7 cells [3] (5 h) amounted to 27%. Further, the “Cellular level, % of concentration applied” value in the data set on MCF7 cells [3] (24 h) amounted to 52%.

Regarding `COc1cccc2c1C(=O)c1c(O)c3c(c(O)c1C2=O)C[C@@](O)(C(=O)CO)C[C@@H]3O[C@H]1C[C@H](N)[C@H](O)[C@H](C)O1` [DOX, doxorubicin], in the data set with UM-SCC-22A cells [4] (setting [11]), the IC50 was 100 to 250 nM. The “MTD of reference drugs (known)” value in data set [5] is 1 to 2 mg/kg and 2 mg/kg.

With `CCCCCCCCCCCCC/C=C/[C@@H](O)[C@H](CO)NC(=O)CCCCCCCCCCC[n+]1ccccc1.[Br-]` [LCL88, D-erythro-2-N-[12′-(1″-Pyridinium)-dodecanoyl]-sphingosine Bromide], the “Stability (decomposition) by MS” value in data set [6] is reported as “no evidence of their decomposition”. The IC50 was 600 nM in data set [1], around 1000 nM in the data set on UM-SCC-22A cells [4] (setting [12]) and around 300 nM with UM-SCC-22A cells [4] (setting [13]). Further, the cell cycle profile result in the data set on UM-SCC-22A cells [7] is given as “significant increase in the population of cells in G0/G1”. Further, the “effect on endogenous ceramide” value with MCF7 cells [8] is given as “caused generation of an “early Cer””. For the same molecule, the “Cellular level, % of concentration applied” value in the data set on MCF7 cells [3] (5 h) turned out to be 23%.

With `CCCCCCCCCCCCCCCC[n+]1ccccc1` [cetylpyridinium bromide, Cetylpyridinium bromide (CPB) monohydrate, reference compound], in data set [9], the “mitochondrial large-amplitude swelling (in words)” value was “only moderate mitochondrial swelling”.

For `N.N.[Cl][Pt][Cl]` [CSP, cisplatinum], the “MTD of reference drugs (known)” value in data set [5] is recorded as 9 mg/kg.

As for `CCCCCCCCCCCCC/C=C/[C@@H](O)[C@H](CO)NC(=O)C[n+]1ccccc1.[Br-]` [LCL150, D-erythro-2-N-[2′-(1″-Pyridinium)-acetyl]-sphingosine Bromide], in data set [6], the “Stability (decomposition) by MS” value was “no evidence of their decomposition”. The “effect on ΔΨ and mitochondrial swelling (in words)” value in data set [9] (40 μM) is “only minor changes in the magnitude of mitochondrial swelling and the value of ΔΨ”. The “mitochondrial large-amplitude swelling (in words)” value in data set [9] is “failed to induce the same degree of swelling”. The IC50 in data set [1] was found to be 8000 nM. In addition, the binding to mitochondria in data set [10] (60 μM) is reported as 29.8 nmol/mg protein. In addition, the “effect on cell growth (in words)” value in the data set on UM-SCC-22A cells [4] (UM-SCC-22A, 96 hr) is given as “did not exert a significant effect on cell growth”. Moreover, the “Cellular level, % of concentration applied” value is reported as around 17% in the data set with MCF7 cells [3] (5 h) and 50% in the data set with MCF7 cells [3] (24 h).

`c1ccc([P+](c2ccccc2)(c2ccccc2)c2ccccc2)cc1` [TPP^+, reference compound]: in [9], the “mitochondrial large-amplitude swelling (in words)” value is “fail to induce large-amplitude swelling”.

On to `CCCCCCCCCCCCCCC[C@@H](O)[C@H](CO)NC(=O)CCCCC[n+]1ccccc1.[Br-]` [LCL143, D-erythro-2-N-[6′-(1″-Pyridinium)-hexanoyl]-4,5-dihydrosphingosine Bromide], for which the “lag period of the induction of mitochondrial swelling versus C6-pyridinium-ceramide” value in data set [9] (30 μM) is listed as “three fold increase in the lag period”. Besides, the IC50 in [1] is 5000 nM and 5020 nM. In [10] (30 μM), this molecule yielded a binding to mitochondria of 9.8±0.7 nmol/mg protein. Also, in the data set on MCF7 cells [3] (1 h), the “Intracellular level, % of concentration applied” value came out at 15%. Also, the results for the “Cellular level, % of concentration applied” value with MCF7 cells [3] (5 h) and in the data set on MCF7 cells [3] (24 h) were 13% and 35%, respectively.

Regarding `O=c1[nH]cc(F)c(=O)[nH]1` [5-FU, 5-fluorouracil, reference compound], in the data set on UM-SCC-22A cells [4] (setting [11]), the IC50 lay in the range of 1000 to 100000 nM. Besides, in [5], the “MTD of reference drugs (known)” value is listed as 25 mg/kg.

Turning to `CCCCCCCCCCCCC/C=C/[C@@H](O)[C@H](CO)NC(=O)CCCCCCCCCCCCCCC[n+]1ccccc1.[Br-]` [LCL30, D-erythro-2-N-[16′-(1″-Pyridinium)-hexadecanoyl]-sphingosine Bromide], in [6], the “Stability (decomposition) by MS” value is “no evidence of their decomposition”. For the same molecule, the “inhibitory effect on MCF7 cell growth (in words)” value in [1] (48 h) is recorded as “similar, concentration dependent (1.0-10.0 μM) inhibitory effect on cell growth”. Besides, the IC50 in data set [1] (listed as LCL-30) is 1600 nM; in data set [1] it was 1800 nM; in the data set with UM-SCC-22A cells [4] (setting [12]), around 1000 nM; with UM-SCC-22A cells [4] (setting [13]) it was around 300 nM. For the same molecule, the cell cycle profile entry in the data set on UM-SCC-22A cells [7] is recorded as “significant increase in the population of cells in G0/G1”. Moreover, the “effect on endogenous ceramide” value in the data set on MCF7 cells [8] is reported as “caused generation of an “early Cer””. The “Cellular level, % of concentration applied” value in the data set on MCF7 cells [3] (5 h) is reported as around 17%.

Regarding `COC(=O)c1ccccc1-c1c2ccc(=[N+](C)C)cc-2oc2cc(N(C)C)ccc12` [TMRM, reference compound], the “mitochondrial large-amplitude swelling (in words)” value in [9] is “fail to induce large-amplitude swelling”. In addition, the binding to mitochondria in [10] (60 μM) amounted to 50±2.6 nmol/mg protein.
